Assay results: patent US7534871B2, “Preparation and use of carbohydrate-based bicyclic ring structures with antimicrobial and cytostatic activity” (Kemin Pharma B.V.B.A., priority 2004, dated 2009)
Converted amounts (≈) assume the structure as drawn.

Columns and labels:
HIV-1 (IIIB) = assay: microbe, parasite or virus in culture; type: cell-based; conditions: Human immunodeficiency virus 1, IIIB, CCRF-CEM; concentration required to inhibit HIV-induced cytopathicity in human CEM cell cultures by 50%
HIV-2 (ROD) = assay: Anti-viral activity: HIV-2-induced cytopathicity in human CEM cell cultures; type: cell-based; conditions: Human immunodeficiency virus 2, CCRF-CEM; concentration required to inhibit HIV-induced cytopathicity in human CEM cell cultures by 50%
HSV-1 (KOS) = assay: Anti-viral activity: HSV-1-induced cytopathicity in human embryo fibroblast E6SM cell cultures; type: cell-based, herpes simplex virus (HSV); conditions: Human alphaherpesvirus 1, 50%
HSV-2 (G) = assay: Anti-viral activity: HSV-2-induced cytopathicity in human embryo fibroblast E6SM cell cultures; type: cell-based, herpes simplex virus (HSV); conditions: Human alphaherpesvirus 2, 50%
VV = assay: microbe, parasite or virus in culture; type: cell-based; conditions: Orthopoxvirus vaccinia, E6SM, read-out: EC50 VV (E6SM)
VZV OKA = assay: microbe, parasite or virus in culture; type: cell-based, varicella zoster virus (VZV); conditions: Human alphaherpesvirus 3, HEL, read-out: EC50 VZV (HEL) OKA
VZV YS = assay: Anti-viral activity: VZV-induced plaque formation in HEL cell cultures, YS strain; type: cell-based, varicella zoster virus (VZV); conditions: Human alphaherpesvirus 3, VZV-induced plaque formation in human embryonic lung HEL cell cultures, 50%
CMV AD-169 strain = assay: Anti-CMV activity: plaque reduction in HEL cells, AD-169 strain; type: cell-based, human cytomegalovirus (CMV); conditions: Human betaherpesvirus 5, AD169, HEL; Table 2; reduce virus plaque formation by 50%; virus input 100 PFU; read-out: IC50 CMV AD-169 Strain
[1] = tested on: murine leukemia cells (L1210/0); assay: Cytostatic activity: inhibition of proliferation of L1210/0 cells; type: cell-based; conditions: Mus musculus, L1210/0; 50% inhibitory concentration, cell proliferation; read-out: IC50 L1210/0
Description: (§1) The compounds were tested for anti-tumor activity via the inhibitory effects on the proliferation of murine leukemia cells (L1210/0), murine mammary carcinoma cells (FM3A), human T-lymphocyte cells (Molt4/C8, CEM/0) and human cervix carcinoma cells (HeLa).

[2] = tested on: murine mammary carcinoma cells (FM3A); assay: Cytostatic activity: inhibition of proliferation of FM3A cells; type: cell-based; conditions: Mus musculus, 50% inhibitory concentration, cell proliferation, read-out: IC50 FM3A/0
Description: as §1

[3] = tested on: human T-lymphocyte cells (Molt4/C8); assay: Cytostatic activity: inhibition of proliferation of Molt4/C8 cells; type: cell-based; conditions: Molt4/C8, 50% inhibitory concentration, cell proliferation, read-out: IC50 Molt4/C8
Description: as §1

[4] = tested on: human T-lymphocyte cells (CEM/0); assay: Cytostatic activity: inhibition of proliferation of CEM/0 cells; type: cell-based; conditions: CCRF-CEM, 50% inhibitory concentration, cell proliferation, read-out: IC50 CEM/0
Description: as §1

[5] = tested on: human cervix carcinoma cells (HeLa); assay: Cytostatic activity: inhibition of proliferation of HeLa cells; type: cell-based; conditions: 50% inhibitory concentration, cell proliferation
Description: as §1

[6] = tested on: E. faecalis ATTC29212 LMG 8222; assay: Anti-bacterial activity, Bioscreen C growth curve: E. faecalis; type: cell-based; conditions: Enterococcus faecalis, LMG8222, 35° C., 16 hours, negative control = 100, read-out: % of growth at 25 PPM compared to the negative control, E. faecalis ATTC29212 LMG 8222
Description: (§2) For the determination of the anti-bacterial and anti-fungal activity the Bioscreen C Analyser Labsystems, Finland, was used. This is an automated reader-incubator. It measures growth continuously by vertical photometry (optical density), processes the data and provides a print out of the results. The area under the growth curve is automatically determined via the Biolink software.
(§3) The inoculum size of the bacteria is standardized to approximately 5×10^5 CFU/ml.
(§4) For bacteria, the 100-honey-well plates containing test chemical, Mueller-Hinton broth and inoculum (=sample) are incubated at 35° C. for 16 hours. Also wells without inoculum are incubated (=blanco). Yeasts are incubated 35° C. for 24 hours in RPMI 1640+MOPS buffer at 165 mM. Moulds also in RPMI 1640+MOPS buffer at 165 mM are incubated 25° C. for 5 days. All micro-organisms are screened against a known concentration of the reference antibiotics or antimycotics such as vancomycin, penicillin G, gentamicin or amphotericin B. The growth curve and the area under the growth curve can be determined using the Biolink software; this is illustrated in FIG. 1.
(§5) The area of the blanco is subtracted from the area of the sample, this number (delta) gives us an indication of the biological activity of the molecules tested and can be expressed as a % of growth at a specific dose compared to a negative control that has a value of 100, illustrated in FIG. 2. Screening of each dose of a specific compound is repeated 5 times. The dose used for all new molecules in all tests is 25 PPM or 25 μg/ml.
(§6) In Table 4 the results of the anti-bacterial activity is given for the new molecules. The micro-organisms used are Staphylococcus aureus, MRSA, VRE, Enterococcus faecalis, Salmonella typhimurium and Pseudomonas aeruginosa.

VRE ATCC700221 = assay: Anti-bacterial activity, Bioscreen C growth curve: VRE; type: cell-based, vancomycin-resistant Enterococcus (VRE); conditions: Enterococcus, 35° C., 16 hours, negative control = 100, read-out: % of growth at 25 PPM compared to the negative control, VRE ATCC700221
Description: as §2, §3, §4, §5, §6

[7] = tested on: S. aureus ATTC29213 LMG10147; assay: Anti-bacterial activity, Bioscreen C growth curve: S. aureus; type: cell-based; conditions: Staphylococcus aureus, 35° C., 16 hours, negative control = 100, read-out: % of growth at 25 PPM compared to the negative control, S. aureus ATTC29213 LMG10147
Description: as §2, §3, §4, §5, §6

MRSA ATCC33591 = assay: Anti-bacterial activity, Bioscreen C growth curve: MRSA; type: cell-based, methicillin-resistant Staphylococcus aureus (MRSA); conditions: Staphylococcus aureus, ATCC 33591 / LMG10147 / MRSA; 25 PPM; 35° C., 16 hours; negative control = 100; read-out: % of growth at 25 PPM compared to the negative control, MRSA ATCC33591 LMG10147
Description: as §2, §3, §4, §5, §6

[8] = tested on: P. aeruginosa ATCC27853 LMG16217; assay: Anti-bacterial activity, Bioscreen C growth curve: P. aeruginosa; type: cell-based, Pseudomonas aeruginosa; conditions: Pseudomonas aeruginosa; 25 PPM; 35° C., 16 hours; negative control = 100; read-out: % of growth at 25 PPM compared to the negative control, P. aeruginosa ATCC27853 LMG16217
Description: as §2, §3, §4, §5, §6

[9] = tested on: S. typhimurium ATTC700408; assay: Anti-bacterial activity, Bioscreen C growth curve: S. typhimurium; type: cell-based; conditions: Salmonella enterica, LMG16217 / TYPHIMURIUM, 35° C., 16 hours, negative control = 100, read-out: % of growth at 25 PPM compared to the negative control, S. typhimurium ATTC700408 LMG16217
Description: as §2, §3, §4, §5, §6

[10] = tested on: Candida albicans IHEM 10284 - ATCC 24433; assay: Anti-fungal activity, Bioscreen C growth curve: Candida albicans (yeast); type: cell-based; conditions: Candida albicans, ATCC24433; 25 PPM; 35° C., 24 hours; negative control = 100; read-out: % of growth at a dose of 25 PPM compared to the negative control, Candida albicans IHEM 10284 - ATCC 24433
Description: as §2
The inoculum size of the yeast is standardized to 0.5-2.5×10^3 CFU/ml.
as §4, §5
(§7) In Table 5 the anti-fungal activity is given for the new molecules. The micro-organisms used were Candida albicans (a typical yeast) and Microsporum gypseum (a typical mold).
as §2, with “Also for” for “For”, “the” for “the anti-bacterial and”, “Labsystems Oy, Finland” for “Labsystems, Finland,”, “used.” for “used. This is an automated reader-incubator.”
(§8) The inoculum size of the yeast is standardized to 0.5-2.5×10^3 CFU/ml. The inoculum size of the mould is standardized to 0.4-5.0×10^4 CFU/ml. Yeasts are incubated 35° C. for 24 hours in RPMI 1640+MOPS buffer at 165 mM. Moulds also in RPMI 1640+MOPS buffer at 165 mM are incubated 25° C. for 5 days.
(§9) As a control, all micro-organisms are screened against some reference antibiotics with known MIC. Screening of each dose of a specific compound is repeated 5 times.

[11] = tested on: Microsporum gypseum IHEM 3999 - ATCC 14683; assay: Anti-fungal activity, Bioscreen C growth curve: Microsporum gypseum (mold); type: cell-based; conditions: Nannizzia gypsea, ATCC14683, 120 h; 25 PPM; 25° C., 5 days; negative control = 100; read-out: % of growth at a dose of 25 PPM compared to the negative control, Microsporum gypseum IHEM 3999 - ATCC 14683
Description: as §2
The inoculum size of the mould is standardized to 0.4-5.0×10^4 CFU/ml.
as §4, §5, §7
as §2, with “Also for” for “For”, “the” for “the anti-bacterial and”, “Labsystems Oy, Finland” for “Labsystems, Finland,”, “used.” for “used. This is an automated reader-incubator.”
as §8, §9

SMILES	EC50 (HIV-1 (IIIB))	EC50 (HIV-2 (ROD))	EC50 (HSV-1 (KOS))	EC50 (HSV-2 (G))	EC50 (VV)	EC50 (VZV OKA)	EC50 (VZV YS)	IC50 (CMV AD-169 strain)	IC50 [1]	IC50 [2]	IC50 [3]	IC50 [4]	IC50 [5]	activity at 25 ppm [6]	activity at 25 ppm (VRE ATCC700221)	activity at 25 ppm [7]	activity at 25 ppm (MRSA ATCC33591)	activity at 25 ppm [8]	activity at 25 ppm [9]	activity at 25 ppm [10]	further results
CO[C@@H]1[C@@H](OC)[C@H](Sc2ccccc2)O[C@@H]2COC(=O)CC/C=C/CCC(=O)O[C@@H]12 [KPE00001002]	> 100 µg/mL	> 20 µg/mL	> 16 µg/mL	> 16 µg/mL	> 16 µg/mL	> 20 µg/mL	> 50 µg/mL	> 20 µg/mL	> 200 µg/mL	> 200 µg/mL	> 200 µg/mL	> 200 µg/mL	> 200 µg/mL	94.9%	94%	93.2%	100%	92.2%	93.7%	105%	activity at 25 ppm [11]: 64%
CO[C@@H]1[C@@H](OC)[C@H](Sc2ccccc2)O[C@@H]2COCC=CCO[C@@H]12 [KPE00001014]	> 100 µg/mL	> 100 µg/mL	> 400 µg/mL	240 µg/mL (≈ 681 µM)	> 400 µg/mL	> 50 µg/mL	> 50 µg/mL	> 50 µg/mL	> 200 µg/mL	> 200 µg/mL	> 200 µg/mL	> 200 µg/mL	> 200 µg/mL	95%	88.4%	105%	113%	96.7%	87.2%	96%	activity at 25 ppm [11]: 69%
CO[C@@H]1[C@@H](OC)[C@H](c2ccccc2)O[C@@H]2COC(=O)CC/C=C/CCC(=O)O[C@@H]12 [KPE00001018]	> 20 µg/mL	> 100 µg/mL	> 16 µg/mL	> 16 µg/mL	> 16 µg/mL	> 50 µg/mL	> 50 µg/mL	> 20 µg/mL	> 200 µg/mL	> 200 µg/mL	> 200 µg/mL	132 ± 13 µg/mL (≈ 326 µM)	> 200 µg/mL	94.9%	94.5%	100%	100%	59.8%	96.6%	93.5%	activity at 25 ppm [11]: 79%
